The record followed here is PMC3021692, “Synthesis and Pharmacological Evaluation of Novel Schiff Base Analogues of 3-(4-amino) Phenylimino) 5-fluoroindolin-2-one” (Journal of Young Pharmacists : JYP, 2010).

Common to all, as to format: in vivo
The subject of series [1] is carrageenan-induced paw edema in rats. Description: Anti-inflammatory activity, carrageenan-induced paw edema test. Particulars: for Percent anti-inflammatory activity (percent inhibition of paw edema): mean ± SD (n = 6). The procedure:
(§1) The synthesized compounds were evaluated for analgesic, anti-inflammatory, and ulcerogenic index. […] The test compounds and the standard drugs were administered in the form of a suspension (1% carboxymethyl cellulose as a vehicle) by oral route for analgesic and anti-inflammatory but for ulcerogenicity studies by intraperitoneally as suspension in 10% v/v Tween-20. Each group consisted of six animals. The animals were procured from the C. L. Baid Metha College of pharmacy, Chennai, and were maintained in colony cages at 25 ±2°C, relative humidity of 45-55%, under a 12-h light and dark cycle; they were fed standard animal feed. All the animals were acclimatized for a week before use. The Institutional Animal Ethics Committee approved the protocol adopted for the experimentation of animals.
Anti-inflammatory activity was evaluated by carrageenan-induced paw edema test in rats.[15] Diclofenac sodium 10, 20 mg/kg was administered as a standard drug for comparison. The test compounds were administered at two dose levels (10 mg/kg, 20 mg/kg). The paw volumes were measured using the mercury displacement technique with the help of a plethysmograph (Model PLYAN; Buxco, USA) immediately before and 30 min, 1, 2, and 3 h after carrageenan injection. The percent inhibition of paw edema was calculated using the following formula.
Percent inhibition I = 100 1− (a−x) / (b−y)
Where x is the mean paw volume of rats before the administration of carrageenan and test compounds or reference compound (test group), a is the mean paw volume of rats after the administration of carrageenan in the test group (drug treated), b is the mean paw volume of rats after the administration of carrageenan in the control group, y is the mean paw volume of rats before the administration of carrageenan in the control group.

In a further series the test system is Wistar albino mice. Description: Analgesic activity, tail-flick technique. Particulars: for Percent analgesic activity: mean ± SD (n = 6); for Analgesic activity (in words): tail-flick, structure-activity comparison within the series / vs diclofenac sodium. The procedure: as §1
The analgesic activity was performed by tail-flick technique using Wistar albino mice (25-35 g) of either sex selected by the random sampling technique.[1314] Diclofenac sodium at a dose level of 10 mg/kg and 20 mg/kg was administered orally as reference drug for comparison. The test compounds at two dose levels (10, 20 mg/kg) were administered orally. The reaction time was recorded at 30 min, 1, 2, and 3 h after the treatment, and cut-off time was 10 s. The percent analgesic activity (PAA) was calculated by the following formula, where T1 is the reaction time (s) before treatment, and T2 is the reaction time (s) after treatment.

Series [2] relates to Albino rats of Wistar strain. The experiment in a line: Evaluation of ulcerogenicity index (pylorus ligation). Also on record: scale not given here. Particulars: test compounds 20 mg/kg intraperitoneally, pylorus ligated on fourth day, mean ± SD (n = 6). The procedure: The synthesized compounds were evaluated for analgesic, anti-inflammatory, and ulcerogenic index. […] The test compounds and the standard drugs were administered in the form of a suspension (1% carboxymethyl cellulose as a vehicle) by oral route for analgesic and anti-inflammatory but for ulcerogenicity studies by intraperitoneally as suspension in 10% v/v Tween-20. Each group consisted of six animals. The animals were procured from the C. L. Baid Metha College of pharmacy, Chennai, and were maintained in colony cages at 25 ±2°C, relative humidity of 45-55%, under a 12-h light and dark cycle; they were fed standard animal feed. All the animals were acclimatized for a week before use. The Institutional Animal Ethics Committee approved the protocol adopted for the experimentation of animals. Ulceration in rats was induced as described by Goyal et al. Albino rats of Wistar strain weighing 150-200 g of either sex were divided into various groups each of six animals.[16] Control group of animals was administered only with 10% v/v Tween 80 suspension intraperitonially. One group was administered with aspirin (German Remedies) intraperitoneally at a dose of 200 mg/kg once daily for 3 days. The remaining group of animals was administered with test compounds intraperitoneally at a dose of 20 mg/kg. On fourth day, Pylorus was ligated as per the method of Shay et al.[17] Animals were fasted for 36 h before the pylorus ligation procedure. Four hours after the ligation, animals were sacrificed. The stomach was removed and opened along with the greater curvature. Ulcer index was determined by the method of Ganguly and Bhatnagar.[18]

Setting [3] is: 10 mg/kg oral, 30 min after carrageenan.
The mark [4] stands for this setting: 10 mg/kg oral, 1 h after carrageenan.
The mark [5] stands for this setting: 10 mg/kg oral, 2 h after carrageenan.
The mark [6] stands for this setting: 10 mg/kg oral, 3 h after carrageenan.
Where [7] appears, read: 20 mg/kg oral, 30 min after carrageenan.
Where [8] appears, read: 20 mg/kg oral, 1 h after carrageenan.
Setting [9] is: 20 mg/kg oral, 2 h after carrageenan.
Where [10] appears, read: 20 mg/kg oral, 3 h after carrageenan.
Setting [11] is: 10 mg/kg oral, 30 min after treatment.
The mark [12] stands for this setting: 10 mg/kg oral, 1 h after treatment.
Setting [13] is: 10 mg/kg oral, 2 h after treatment.
Where [14] appears, read: 10 mg/kg oral, 3 h after treatment.
[15] abbreviates: 20 mg/kg oral, 30 min after treatment.
The mark [16] stands for this setting: 20 mg/kg oral, 1 h after treatment.
Where [17] appears, read: 20 mg/kg oral, 2 h after treatment.
The mark [18] stands for this setting: 20 mg/kg oral, 3 h after treatment.

The structures appear in SMILES notation. Entries after “also recorded” stand apart in the source; their conditions may differ.

As to `O=C1Nc2ccc(F)cc2C1=Nc1ccc(N=Cc2ccccc2)cc1` [Compound N6], the “Percent anti-inflammatory activity (percent inhibition of paw edema)” value in series [1] (setting [3]) was found to be 37 ± 1.67 %; in series [1] (setting [4]), 42 ± 1.42 %; in series [1] (setting [5]) it was 49 ± 1.58 %; in series [1] (setting [6]), 36 ± 1.96 %; in series [1] (setting [7]), 46 ± 1.48 %; in series [1] (setting [8]), 55 ± 1.76 %. The “Percent anti-inflammatory activity (percent inhibition of paw edema)” value in series [1] (setting [9]) is recorded as 59 ± 1.93 %; in series [1] (setting [10]) it was 38 ± 1.47 %. Besides, the Percent analgesic activity with Wistar albino mice (setting [11]) turned out to be 37 ± 1.87 %; in the series with Wistar albino mice (setting [12]) it was 46 ± 1.42 %; with Wistar albino mice (setting [13]), 49 ± 1.15 %; in the series with Wistar albino mice (setting [14]), 36 ± 1.96 %; in the series on Wistar albino mice (setting [15]), 49 ± 1.83 %; in the series with Wistar albino mice (setting [16]), 54 ± 1.76 %. Further, the Percent analgesic activity was determined as 59 ± 1.18 % in the series with Wistar albino mice (setting [17]) and 43 ± 1.47 % in the series on Wistar albino mice (setting [18]). In addition, the “Analgesic activity (in words)” value in the series on Wistar albino mice was “decreasing activity”. Further, in series [2], the Ulcer index was determined as 0.84 ± 1.78.

On to `COc1ccc(C=Nc2ccc(N=C3C(=O)Nc4ccc(F)cc43)cc2)cc1` [Compound N7], for which the “Percent anti-inflammatory activity (percent inhibition of paw edema)” value is listed as 36 ± 1.74 % in series [1] (setting [3]); 42 ± 1.72 % in series [1] (setting [4]); 45 ± 1.55 % in series [1] (setting [5]); 33 ± 1.69 % in series [1] (setting [6]); 44 ± 1.76 % in series [1] (setting [7]); 55 ± 1.78 % in series [1] (setting [8]). Also, the “Percent anti-inflammatory activity (percent inhibition of paw edema)” value turned out to be 58 ± 1.66 % in series [1] (setting [9]) and 41 ± 1.48 % in series [1] (setting [10]). For the same molecule, the Percent analgesic activity with Wistar albino mice (setting [11]) worked out at 34 ± 1.74 %; in the series with Wistar albino mice (setting [12]) it was 43 ± 1.72 %; in the series with Wistar albino mice (setting [13]) it was 45 ± 1.45 %; in the series on Wistar albino mice (setting [14]), 29 ± 1.69 %; with Wistar albino mice (setting [15]) it was 47 ± 1.96 %; in the series with Wistar albino mice (setting [16]), 52 ± 1.67 %. Also, the Percent analgesic activity with Wistar albino mice (setting [17]) is recorded as 56 ± 1.36 %; with Wistar albino mice (setting [18]) it was 44 ± 1.48 %. Further, the “Analgesic activity (in words)” value in the series with Wistar albino mice is listed as “decreasing activity; also recorded: further decrease of activity”. This molecule showed a Ulcer index in series [2] of 0.78 ± 1.19.

Turning to `O=C1Nc2ccc(F)cc2C1=Nc1ccc(N=Cc2ccc([N+](=O)[O-])cc2)cc1` [Compound N8], the “Percent anti-inflammatory activity (percent inhibition of paw edema)” value in series [1] (setting [3]) turned out to be 40 ± 1.65 %; in series [1] (setting [4]), 44 ± 1.53 %; in series [1] (setting [5]), 48 ± 1.74 %; in series [1] (setting [6]), 36 ± 1.36 %; in series [1] (setting [7]), 49 ± 1.46 %; in series [1] (setting [8]), 52 ± 1.92 %. Further, the entries for the “Percent anti-inflammatory activity (percent inhibition of paw edema)” value in series [1] (setting [9]) and in series [1] (setting [10]) were 56 ± 1.16 % and 39 ± 1.48 %, respectively. Moreover, the “Anti-inflammatory activity compared to reference standard diclofenac sodium (in words)” value in series [1] (carrageenan-induced paw edema in rats) is “equipotent”. Moreover, the Percent analgesic activity in the series on Wistar albino mice (setting [11]) worked out at 39 ± 1.75 %; with Wistar albino mice (setting [12]), 46 ± 1.43 %; with Wistar albino mice (setting [13]) it was 48 ± 1.24 %; in the series on Wistar albino mice (setting [14]), 36 ± 1.36 %; in the series with Wistar albino mice (setting [15]), 48 ± 1.46 %; in the series with Wistar albino mice (setting [16]), 51 ± 1.92 %. In addition, the Percent analgesic activity with Wistar albino mice (setting [17]) is listed as 54 ± 1.16 %; in the series with Wistar albino mice (setting [18]), 39 ± 1.48 %. Further, the “Analgesic activity (in words)” value with Wistar albino mice is “further decrease of activity”. Besides, the Ulcer index in series [2] amounted to 0.92 ± 1.45.

On to `O=C1Nc2ccc(F)cc2C1=Nc1ccc(N=Cc2ccc(Cl)cc2)cc1` [Compound N9], for which the “Percent anti-inflammatory activity (percent inhibition of paw edema)” value in series [1] (setting [3]) came out at 38 ± 1.82 %; in series [1] (setting [4]), 44 ± 1.32 %; in series [1] (setting [5]), 48 ± 1.99 %; in series [1] (setting [6]), 38 ± 1.72 %; in series [1] (setting [7]) it was 46 ± 1.68 %; in series [1] (setting [8]) it was 51 ± 1.46 %. The “Percent anti-inflammatory activity (percent inhibition of paw edema)” value in series [1] (setting [9]) is given as 57 ± 1.18 %; in series [1] (setting [10]), 45 ± 1.32 %. Also, the Percent analgesic activity with Wistar albino mice (setting [11]) amounted to 42 ± 1.82 %; in the series on Wistar albino mice (setting [12]), 44 ± 1.72 %; in the series with Wistar albino mice (setting [13]), 48 ± 1.59 %; in the series with Wistar albino mice (setting [14]), 38 ± 1.72 %; with Wistar albino mice (setting [15]), 46 ± 1.68 %; in the series on Wistar albino mice (setting [16]) it was 51 ± 1.46 %. In addition, the Percent analgesic activity with Wistar albino mice (setting [17]) is given as 57 ± 1.18 %; in the series on Wistar albino mice (setting [18]), 45 ± 1.32 %. The “Analgesic activity (in words)” value in the series with Wistar albino mice is “decreasing activity”. The molecule further had a Ulcer index in series [2] of 0.75 ± 1.26.

Turning to `O=C1Nc2ccc(F)cc2C1=Nc1ccc(N=Cc2ccc(O)cc2)cc1` [Compound N10], the “Percent anti-inflammatory activity (percent inhibition of paw edema)” value in series [1] (setting [3]) came to 43 ± 1.55 %; in series [1] (setting [4]) it was 49 ± 1.72 %; in series [1] (setting [5]), 54 ± 1.52 %; in series [1] (setting [6]) it was 39 ± 1.92 %; in series [1] (setting [7]) it was 48 ± 1.56 %; in series [1] (setting [8]) it was 54 ± 1.65 %. Also, the “Percent anti-inflammatory activity (percent inhibition of paw edema)” value in series [1] (setting [9]) is on record as 58 ± 1.16 %; in series [1] (setting [10]) it was 42 ± 1.43 %. The Percent analgesic activity in the series with Wistar albino mice (setting [11]) is reported as 43 ± 1.55 %; in the series with Wistar albino mice (setting [12]) it was 46 ± 1.72 %; in the series on Wistar albino mice (setting [13]), 49 ± 1.52 %; in the series on Wistar albino mice (setting [14]) it was 38 ± 1.92 %; in the series with Wistar albino mice (setting [15]), 48 ± 1.56 %; in the series with Wistar albino mice (setting [16]) it was 52 ± 1.96 %. Also, the Percent analgesic activity was 58 ± 1.16 % with Wistar albino mice (setting [17]) and 42 ± 1.43 % in the series on Wistar albino mice (setting [18]). This molecule also had a Ulcer index in series [2] of 0.81 ± 1.18.
